Ends that are not written are not given here. Peptide text beside a SMILES is read from it. * marks the point of attachment. Cbz = O=C(OCc1ccccc1)*; CH2F = FC*
Key:
[1] = system: p53 transcriptional activity; assay: p53-Luc reporter assay, sGCα1-mediated repression of p53 transcriptional activity in LNCaP cells; type: cell-based
From the text: FIGS. 1A-1F: Over-expression of sGCα1 inhibits p53 transcriptional activity. p53 activity was quantified by measuring luciferase activity. Bar graphs represent the average of three independent experiments plus standard deviation. All cells received the same amount of transfected expression plasmid and that pCH110 was used to control transfection efficiency.
FIGS. 2A-2F: The sGCα1-mediated repression of p53 transcriptional activity is independent of mediators of NO signaling and guanylyl cyclase activity. Androgen-dependent LNCaP cells were transfected with 0.5 μg pCH110, 0.1 μg p53-Luc reporter plasmid, and subjected to different treatments:
FIG. 2A: Cells were transfected with 0.5 μg pCH110, 0.1 μg p53-Luc reporter plasmid, and subjected to […] ODQ.
FIG. 2C: Cells were treated with different concentrations of C-PTIO.
FIG. 2D: Cells were treated with different concentrations of SNP.
FIG. 2E: Cells were treated with different concentrations of 8-Br-cGMP.
(§1) To determine whether nitric oxide (NO) signaling is involved in sGCα1-mediated repression of p53 transcriptional activity, NO interfering drugs were used.
Supporting this finding, the NO donor SNP had no effect (FIG. 2D).

LNCaP cells [2] = assay: LNCaP cell viability with etoposide, MTT assay; type: cell-based; settings: 10 μM etoposide, two days
Protocol: FIG. 7B: Over-expression of sGCα1 protects prostate cancer cells from the lethal effects of etoposide. LNCaP cells were infected with control empty adenovirus (−sGCα1; 20 MOI) or sGCα1-expressing adenovirus (+sGCα1; 2 or 20 MOI) and treated with 10 μM etoposide. After two days of incubation, cell number was quantified by MTT assay. Bar graphs represent averages of three independent experiments plus standard deviations. All activities are relative to the first condition, and this activity was set to 100%.
LNCaP cells were infected with an sGCα1-expressing adenovirus and treated with etoposide, an inducer of apoptosis. […] This finding, together, with the PCR array data showing that sGCα1 can regulate Survivin expression, is consistent with results showing that Survivin desensitizes prostate cancer cells to etoposide.

LNCaP cell culture = type: cell-based
From the text: In one non-limiting example, Peptide A-8R [SEQ ID NO: 1] can be truncated to a smaller peptide that retains the same type of biological activity profile. In certain embodiments, truncating Peptide A-8R [SEQ ID NO: 1] results in greater potency upon conversion of some of the pharmacophore functionalities to peptidomimetic groups that can, in turn, enhance key interactions by lowering the net binding energy. In one experiment, Peptide A-8R [SEQ ID NO: 1] was divided into two parts, using the central proline residue as the division point. […] A minimum number of amino acids desired for cytotoxicity was then identified. […] The following Peptide A truncated and derivative probes were synthesized and evaluated for their effect on cytotoxicity after 3- and 6-day exposures:
The following table lists cell culture data for truncated Peptide A peptides. The amino acid sequences and IC50 values in μM concentrations depict cytotoxicity after 3- and 6-day exposures (“NotA” means not active). “8R” [SEQ ID NO: 6] signifies that 8 arginines are present on the carboxy terminus to mediate membrane translocation. The data has shown that the 8R terminus [SEQ ID NO: 6] can be either as the free carboxy (—OH) or amide (—NH2) with no alteration of permeation or observed activity.
The table below lists LNCaP cell culture data for various Peptide A derivatives, displaying the observed IC50 values in μM concentrations after 3- and 6-day exposures.

MDM2 = assay: Western blotting of MDM2 in LNCaP nuclear and cytosolic extracts; type: cell-based; settings: LNCaP cells
Protocol: FIG. 4B: Nuclear (N) and cytosolic (C) extracts were prepared from LNCaP cells and Western blotting was used to measure protein levels of MDM2, p53, JAB1, and sGCα1. β-actin was used as loading control.
LNCaP cells were infected with an sGCα1-expressing adenovirus or control empty virus and p53 subcellular localization was measured by Western blotting following cell fractionation.

sGC = sGC (Homo sapiens, UniProt Q02153); assay: sGC-catalyzed cGMP synthesis (data not shown); type: biochemical; settings: the two ODQ concentrations
sGC, sequence (Q02108 whole entry partner): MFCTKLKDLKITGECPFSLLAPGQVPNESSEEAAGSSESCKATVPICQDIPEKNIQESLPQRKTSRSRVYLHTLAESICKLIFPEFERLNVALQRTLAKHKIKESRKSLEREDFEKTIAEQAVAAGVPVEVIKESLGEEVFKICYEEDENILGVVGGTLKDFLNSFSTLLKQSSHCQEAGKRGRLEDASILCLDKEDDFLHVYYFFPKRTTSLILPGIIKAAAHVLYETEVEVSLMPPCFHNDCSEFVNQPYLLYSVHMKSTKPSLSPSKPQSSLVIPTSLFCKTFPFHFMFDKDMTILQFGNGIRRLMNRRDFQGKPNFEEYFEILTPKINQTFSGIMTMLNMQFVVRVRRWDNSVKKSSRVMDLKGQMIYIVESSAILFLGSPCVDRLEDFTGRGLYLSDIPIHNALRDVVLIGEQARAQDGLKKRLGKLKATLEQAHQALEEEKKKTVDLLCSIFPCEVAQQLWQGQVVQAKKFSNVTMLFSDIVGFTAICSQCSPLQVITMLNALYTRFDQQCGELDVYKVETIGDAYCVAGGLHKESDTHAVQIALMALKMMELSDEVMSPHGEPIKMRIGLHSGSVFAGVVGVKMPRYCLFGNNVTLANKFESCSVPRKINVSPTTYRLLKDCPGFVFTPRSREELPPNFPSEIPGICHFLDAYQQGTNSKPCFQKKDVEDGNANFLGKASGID
sGC, sequence (Q02153 whole entry): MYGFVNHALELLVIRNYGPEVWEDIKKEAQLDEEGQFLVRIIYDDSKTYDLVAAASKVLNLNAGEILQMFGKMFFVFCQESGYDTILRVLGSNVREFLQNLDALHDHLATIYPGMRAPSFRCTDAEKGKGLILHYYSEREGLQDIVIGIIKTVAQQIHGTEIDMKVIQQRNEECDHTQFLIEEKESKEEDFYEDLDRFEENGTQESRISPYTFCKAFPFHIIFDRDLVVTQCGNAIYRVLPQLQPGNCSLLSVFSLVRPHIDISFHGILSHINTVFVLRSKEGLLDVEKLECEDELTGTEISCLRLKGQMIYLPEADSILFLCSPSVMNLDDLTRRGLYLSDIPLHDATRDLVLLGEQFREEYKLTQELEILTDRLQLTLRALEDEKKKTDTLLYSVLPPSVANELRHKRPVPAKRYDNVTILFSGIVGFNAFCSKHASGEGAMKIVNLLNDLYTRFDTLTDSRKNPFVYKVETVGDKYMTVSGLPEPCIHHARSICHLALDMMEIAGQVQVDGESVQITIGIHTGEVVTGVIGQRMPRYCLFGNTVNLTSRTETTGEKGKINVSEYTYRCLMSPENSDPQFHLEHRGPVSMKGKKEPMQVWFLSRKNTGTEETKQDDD
From the text: as §1

sGCα1 = assay: Western blotting of sGCα1 expression in VCaP cells; type: cell-based; settings: 1 nM R1881
Protocol: FIG. 11A: VCaP cells were treated with or without 1 nM R1881 and Western blotting was used to measure expression of sGCα1. β-actin was used as a loading control.

LNCaP cells [3] = assay: Relief of Peptide A-8R cytotoxicity by pan-caspase inhibitor in LNCaP cells; type: cell-based; settings: 4 hrs
Protocol: FIG. 18B: LNCaP cells were grown for 4 hrs in the presence of increasing concentration of Peptide A-8R [SEQ ID NO: 1] with or without […] Z-VAD-FMK and then cell density was measured.
To determine if the cytotoxicity of Peptide A-8R [SEQ ID NO: 1] is through apoptosis, LNCaP cells were monitored for Caspase 3/7 activity. […] Thus, Peptide A-8R [SEQ ID NO: 1] was able to induce Caspase 3/7 activity much faster than the well-studied apoptosis-inducing drug Etoposide. To confirm that the Peptide was killing cells via apoptosis, the inventors used the pan-caspase inhibitor Z-VAD-FMK.

LNCaP cells [4] = type: cell-based; settings: increasing concentration of peptide, days; with or without 1 nM R1881
Protocol: FIG. 12B: LNCaP cells were grown without androgen for 2 or 4 days in the presence of increasing concentration of Peptide A-8R [SEQ ID NO: 1] (upper left), Peptide B-8R [SEQ ID NO: 2] (upper right), Peptide C-8R [SEQ ID NO: 3] (lower left), or Peptide D-8R [SEQ ID NO: 4] (lower right). The MTT reagent was used to measure cell density.
FIG. 13A: LNCaP cells were grown with (Right) or without (Left) 1 nM androgen ([…]) for 3 or 6 days in the presence of increasing concentration of Peptide A-8R [SEQ ID NO: 1] or vehicle (70% DMSO). The MTT reagent was used to measure cell density.
FIG. 13B: LNCaP cells were grown with (Right) or without (Left) 1 nM androgen (R1881) for 3 or 6 days in the presence of increasing concentration of Peptide C-8R [SEQ ID NO: 3] or vehicle and then cell density was measured.
FIG. 14A: LNCaP cells were grown with (Right) or without (Left) 1 nM R1881 for 3 or 6 days in the presence of increasing concentration of Peptide A or vehicle and then cell density was measured.
FIG. 14B: LNCaP cells were grown with (Right) or without (Left) 1 nM R1881 for 3 or 6 days in the presence of increasing concentration of Peptide A-8R [SEQ ID NO: 1] or vehicle and then cell density was measured.
FIG. 15A: LNCaP cells were grown for 1-8 hrs in the presence of 10 μM Peptide A-8R [SEQ ID NO: 1] or vehicle and then cell density was measured.
FIG. 19C: LNCaP cells were grown with for 12 or 48 hrs in the presence of increasing concentration of Peptide A-8R [SEQ ID NO: 1] (Left) or PeptideA-8R-Biotin [SEQ ID NO: 1] (Right) and then cell density was measured.
Each peptide contained 8 arginines at the C-terminus, a sequence which is known to mediate plasma membrane translocation and cellular internalization.
To measure how rapid the cytotoxic effect of Peptide A-8R [SEQ ID NO: 1] occurs, LNCaP cells were treated with 10 μM peptide and incubated for 1-8 hrs. […] Using the same conditions, C81 cells were used to study the peptide effect on hormone-refractory prostate cancer cells.

Molecule	cytotoxicity / activity in cells (in words) (LNCaP cell culture)	Cytotoxicity (LNCaP cell culture)	also measured
CC1(C)N([O])C(c2ccc(C(=O)O)cc2)=[N+]([O-])C1(C)C [C-PTIO]	–	–	p53 activity ([1]; 100 nM of drug): inhibit p53 activity
COc1cc([C@@H]2c3cc4c(cc3[C@@H](O[C@@H]3O[C@@H]5CO[C@@H](C)O[C@H]5[C@H](O)[C@H]3O)[C@H]3COC(=O)[C@H]23)OCO4)cc(OC)c1O [Etoposide]	–	–	viability of LNCaP cells (LNCaP cells [2]): significantly reduced
C[C@H](NC(=O)[C@H](CCCCN)NC(=O)[C@H](CS)NC(=O)[C@@H](N)Cc1ccccc1)C(=O)O [FA4, FCKA] (H-FCKA-OH)	diminished but yet still significant cytotoxicity	–	–
CC(C)C[C@@H](C=O)NC(=O)[C@H](CC(C)C)NC(=O)[C@H](CC(C)C)NC(=O)OCc1ccccc1 [MG132] (Cbz-Leu-Leu-Leu-aldehyde)	–	–	MDM2 cytoplasmic levels (MDM2): significantly enhanced
O=c1onc2cnc3ccccc3n12 [ODQ]	–	–	effect on sGCα1-mediated repression of p53 ([1]; 5 or 50 mM ODQ): no effect; sGC-catalyzed cGMP synthesis (sGC): strongly inhibited
Nc1nc2c(nc(Br)n2[C@@H]2O[C@@H]3COP(=O)(O)O[C@H]3[C@H]2O)c(=O)[nH]1 [Peptide 8-Br-cGMP, 8-Br-cGMP]	–	–	p53 transcriptional activity ([1]; different concentrations): weakly enhanced
C[C@]1(O)CC[C@H]2[C@@H]3CCC4=CC(=O)CCC4=C3C=C[C@@]21C [Peptide R1881, R1881]	–	–	sGCα1 protein expression (sGCα1): significantly induced
C[C@@H](O)[C@H](N)C(=O)N[C@@H](Cc1ccccc1)C(=O)N[C@@H](CS)C(=O)O [TC3, TFC] (H-Thr-Phe-Cys-OH)	diminished but yet still significant cytotoxicity	–	–
COC(=O)C[C@H](NC(=O)[C@H](C)NC(=O)[C@@H](NC(=O)OCc1ccccc1)C(C)C)C(=O)CF [Z-VAD-FMK] (Cbz-Val-Ala-Asp(OMe)-CH2F)	–	–	effect on Vehicle-treated cells (LNCaP cells [3]; 40 mM Z-VAD-FMK): no significant effect; relief of the Peptide A-8R cytotoxic effect (LNCaP cells [3]; pretreatment with 40 mM Z-VAD-FMK, peptide up to 50 μM): complete relief
ACKAFRRRRRRRR-NH2 [AF5-8R]	–	Yes	–
Ac-LRLKGQMIYLRRRRRRRR-OH [Peptide B-8R]	–	–	effect on LNCaP cell growth / cytotoxicity (in words) (LNCaP cells [4]): stopped the growth
Ac-PLHDATRDLVRRRRRRRR-OH [Peptide C-8R]	–	–	effect on LNCaP cell growth / cytotoxicity (in words) (LNCaP cells [4]): no effect
Ac-TFCKAFPFHII [Peptide A]	–	–	effect on LNCaP cell growth / cytotoxicity (in words) (LNCaP cells [4]): no effect
CKAFRRRRRRRR-NH2 [Peptide CF4-8R]	lower-level activities retained	Yes	–
FAKAFRRRRRRRR-NH2 [Peptide FF5-C2A-8R]	dramatically reduced activity	Yes	–
FCAAFRRRRRRRR-NH2 [FF5-K3M-8R]	–	Yes	–

Molecule	cytotoxicity / activity in cells (in words) (LNCaP cell culture)	Cytotoxicity (LNCaP cell culture)	also measured
FCKAARRRRRRRR-NH2 [FA5-8R]	–	Yes	–
FCKAF [FF5-OH, FCKAF]	–	No	–
FCKAF [FF5]	inactive	–	–
FCKAF-NH2 [FF5-NH2, FCKAF]	–	No	–
FCKAFPRRRRRRRR-NH2 [Peptide FP6-8R]	–	Yes	–
FCKAFRRRRRRRR-NH2 [Peptide FF5-8R]	–	Yes	–
FCKARRRRRRRR [Peptide FA4-8R]	lower-level activities retained	Yes	–
FMKAFRRRRRRRR-NH2 [Peptide FF5-C2M-8R]	significant activity was retained	Yes	–
KAFPFHRRRRRRRR [Peptide KH6-8R]	–	No	–
KAFPRRRRRRRR [Peptide KP4-8R]	–	No	–
PFHII [PI5, PFHII]	no activity	–	–
PFHIIRRRRRRRR-NH2 [Peptide PI5-8R]	–	No	–
TFCKAFP [TP7, TFCKAFP]	retained cytotoxicity	–	–
TFCKAFPRRRRRRRR-NH2 [Peptide TP7-8R]	–	Yes	–
TFCKAFRRRRRRRR-NH2 [Peptide TF6-8R]	quite comparable	Yes	–
TFCRRRRRRRR [Peptide TC3-8R]	lower-level activities retained	Yes	–

— US9546196B2, “Compositions and methods of treatment of cancers” (The University of Toledo, priority 2009, dated 2017)
